In US20160209435A1, “Acetaminophen as a Marker of Hepatic Disorders” (THE ARIZONA BOARD OF REGENTS, on behalf of THE UNIVERSITY …, priority 2008, published 2016):
Like-named read-outs stand apart in the source and are kept apart here.

Assays:
[1] = cited from earlier work
[2] = APAP-GLUC concentration in plasma of pediatric patients after APAP administration (HPLC); assay type: in vivo, human; settings: for concentration at 1 h / concentration at 2 h / concentration at 4 h / concentration at 3 h: human, plasma; for concentration at 1 h: 1 h after APAP; for concentration at 2 h: 2 h after APAP; for concentration at 4 h: 4 h after APAP; for concentration at 3 h: 3 h after APAP
Description: (§1) A study was conducted in pediatric patients whose disease status had been biopsy verified. Twenty-four pediatric patients (12-18 yrs) were desirable for the preliminary study due to the presumed lack of confounding factors (e.g., alcoholic consumption, illicit drug use) and the increasing prevalence of childhood obesity. Conversely, pediatric patients are limited in the amount of real liver damage that can take place simply due to age, where pediatric patients are incapable of developing ballooning degeneration and are limited to fat deposition, inflammation, and fibrosis.
High Performance Liquid Chromatography Analysis. APAP and its metabolites in plasma, and urine samples were quantified by high performance liquid chromatography analysis based on previously described methods (Howie et al., 1977a; Chen et al., 2000; Slitt et al., 2003d). APAP and its metabolites were resolved using a Zorbmax™ SB-C18 reverse-phase 4.6-mm×25-cm column with a Phenomenex™ Security Guard Column Guard and eluted using a mobile phase composed of 12.5% HPLC-grade methanol, 1% acetic acid, and 86.5% water, run isocratically at a flow rate of 1.2 mL/minute. The elution of metabolites was monitored at a wavelength of 254 nm. Retention times of APAP and its metabolites were determined by comparison with that of authentic standards. […] Samples were analyzed using a Beckman System Gold HPLC system (Beckman Coulter, Inc., Fullerton, Calif.) equipped with a 128-nm solvent module and a 166-nm detector. Quantitation was based on integrated peak areas. The concentrations of APAP and its metabolites were calculated using an APAP standard curve since the molar extinction coefficients of APAP and its conjugated metabolites are approximately the same (Howie et al., 1977b). To precipitate proteins in plasma, and urine, samples were diluted 1:2, 1:2, and 1:3, respectively, with ice-cold methanol and centrifuged at 4,000×g for 30 minutes at 4° C. The resulting supernatants were collected and diluted in mobile phase 1:3 (urine) or 1:2 (plasma) prior to HPLC analysis.
Liver fibrosis was histologically characterized as mild (minimal scarring around blood vessels), moderate (scarring extending out from the liver blood vessels), or severe (scarring forming bridges between blood vessels).
Liver inflammation was histologically characterized as mild (less than 2 foci of inflammation), moderate (2-4 foci of inflammation), or severe (more than 4 foci of inflammation).

[3] = APAP-GLUC concentration in urine after APAP administration (HPLC); assay type: in vivo, human; settings: normal volunteers, steatosis, steatohepatitis
Description: as §1
High Performance Liquid Chromatography Analysis. APAP and its metabolites in plasma, and urine samples were quantified by high performance liquid chromatography analysis based on previously described methods (Howie et al., 1977a; Chen et al., 2000; Slitt et al., 2003d). […] The elution of metabolites was monitored at a wavelength of 254 nm. Retention times of APAP and its metabolites were determined by comparison with that of authentic standards. […] Samples were analyzed using a Beckman System Gold HPLC system (Beckman Coulter, Inc., Fullerton, Calif.) equipped with a 128-nm solvent module and a 166-nm detector. Quantitation was based on integrated peak areas. […]

[4] = MCD rats, APAP 1 mmol/kg; cited from earlier work
[5] = NASH, read-out: Mean plasma concentration
[6] = NASH, read-out: Median plasma concentration
[7] = Normal, read-out: Mean plasma concentration
[8] = Normal, read-out: Median plasma concentration
[9] = Steatosis, read-out: Mean plasma concentration
[10] = Steatosis, read-out: Median plasma concentration

Compound: CC(=O)Nc1ccc(O)cc1 [Acetaminophen]
- plasma half-life ([1]; first-order elimination): 2.0 to 2.4 h
- fraction of administered dose conjugated with glucuronic acid ([1]; in vivo): At least one-half
- fraction of administered dose conjugated with sulfate ([1]; in vivo): one-third
- fraction metabolized by CYP-450-dependent mixed-function oxidase pathway ([1]; primarily via CYP2E1): 5-9%
- dose excreted unchanged by the kidneys ([1]; recommended dose): Less than 5%

Compound: CC(=O)Nc1ccc(O[C@@H]2O[C@H](C(=O)O)[C@@H](O)[C@H](O)[C@H]2O)cc1 [APAP-GLUC, acetaminophen (APAP)-glucuronide]
- Plasma concentration, steatohepatitis versus simple steatosis ([2]; all time points measured): significantly higher
- concentration at 1 h [2, 5]: 60.7 µM
- concentration at 1 h [2, 6]: 75.9 µM
- concentration at 2 h [2, 5]: 72.7 µM
- concentration at 2 h [2, 6]: 66.4 µM
- concentration at 4 h [2, 5]: 68.3 µM
- concentration at 4 h [2, 6]: 62.6 µM
- concentration at 1 h [2, 7]: 29.9 µM
- concentration at 1 h [2, 8]: 29 µM
- concentration at 2 h [2, 7]: 54.3 µM
- concentration at 2 h [2, 8]: 48.9 µM
- concentration at 3 h [2, 7]: 46.7 µM
- concentration at 3 h [2, 8]: 39.2 µM
- concentration at 1 h [2, 9]: 30.5 µM
- concentration at 1 h [2, 10]: 32.6 µM
- concentration at 2 h [2, 9]: 44.3 µM
- concentration at 2 h [2, 10]: 41.1 µM
- concentration at 4 h [2, 9]: 35.5 µM
- concentration at 4 h [2, 10]: 35.3 µM
- Plasma levels, hepatic fibrosis versus no hepatic fibrosis ([2]; pediatric patients): Higher
- Plasma levels, hepatic inflammation versus no hepatic inflammation ([2]; pediatric patients): Higher
- Urine levels, NASH versus other groups [3]: not significantly different between patients with NASH and other groups until four hours
- route of excretion relative to control [4]: shift from biliary to plasma excretion
